These results are taken from patent US9145375B2, “Quinazolinone compounds” (PRANA BIOTECHNOLOGY LIMITED, priority 2008, dated 2015).

Values joined by “and” are separate entries in the source; they are usually repeats but may differ in a detail not shown here. Identical values can stand only once. Some results are limits rather than exact numbers.

Data set [1] is described as follows: Plasma Protein Binding, mouse. The data set is classed as in vitro ADME.
Data set [2] in a line: Plasma Protein Binding, rat. In kind it is in vitro ADME.
In another data set the test system is Neuronal cortical cells. As to the kind of experiment: Cytotox (% viable); Primary Neuronal Cells Neurotoxicity Assay. To be noted: cell type not given, repeat values given. The data set is classed as cell-based, mouse. As to the method:
Assay 2 (a). Primary Neuronal Cells Neurotoxicity Assays
Cortical cultures were prepared as previously described (White et al., 1998). Embryonic day 14 BL6Jx129sv mouse cortices were removed, dissected free of meninges and dissociated in 0.025% (wt/vol) trypsin. Dissociated cells were plated in 48 well culture plates at a density of 2×10^6 cells/mL in MEM with 25% (vol/vol) FCS and 5% (vol/vol) HS and incubated at 37° C., 2 hrs. Media was then replaced with Neurobasal media (Invitrogen Life Technologies) and B27 supplements (Invitrogen Life Technologies). Cultures were maintained at 37° C. in 5% CO2. Prior to experimentation, the culture medium was replaced with Neurobasal media and B27 minus antioxidants (Invitrogen Life Technologies).
Neuronal cortical cells were cultured for five days as per Assay 2 in NB media and B27 supplement.
On day six the test compounds were added to the neuronal cell cultures in NB media and B27 supplement minus antioxidants.
Test compounds were dissolved in 100% DMSO to a concentration of 2.5 mM (10 mM if excess compound was weighed out per vial—then diluted to 2.5 mM). 2.5 mM stock solution was serially diluted 1 in 10 to give working solutions of 250 uM, 25 uM, 2.5 uM. Test compounds were not added directly to cells, instead they were added to a 48 well ‘Drug Plate’ as comprised below: • Preparation of “Drug Plate”:
Well 1: 576 ul NB+B27 (no antioxidant)*+24 ul 2.5 uM test compound
Well 2: 576 ul NB+B27 (no antioxidant)+24 μl 25 uM test compound
Well 3: 576 ul NB+B27 (no antioxidant)+24 ul 250 uM test compound
Well 4: 576 ul NB+B27 (no antioxidant)+24 ul 2.5 uM test compound
Well 5: 576 ul NB+B27 (no antioxidant)+24 ul 25 uM test compound
Well 6: 576 ul NB+B27 (no antioxidant)+24 ul 250 uM test compound
Well 7: 576 ul NB+B27 (no antioxidant)+24 ul test compound diluent**
Well 8: 600 ul NB+B27 (no antioxidant)
The Drug Plate was incubated at 37° C. for 15 mins. 200 ul of each well was added in triplicate to the corresponding cell plate. The cell plate was incubated at 37° C., for 4 days, (2 compounds are tested on each plate of cells).
*NB media and B27 (no antioxidants),
**PBT diluent 10% DMSO in NB+1327 (no antioxidants)
On completion of the assay, 1/10 volume MTS was added per well of plate (ie 25 ul/250 ul). The plates were incubated at 37° C. for 2 hrs, and then absorbance was read at 560 nm.

A further data set relates to Fe-DA. As to the kind of experiment: H2O2 assay, Fe-DA (% cf. Fe 0.4 μM/DA 50 μM). In kind it is biochemical. To be noted: Fe 0.4 μM/DA 50 μM. On the procedure:
(§1) This fluoresence assay evaluates the ability of a test compound to inhibit the generation of hydrogen peroxide (H2O2) by iron in the presence of a reducing substrate such as ascorbic acid. In the assay, iron in the form of FeCl3 or copper is allowed to react with ascorbic acid by incubating for 1 hr at 37° C. in the presence of the fluorescing compound DCF and horseradish peroxidase. H2O2 generated by the system is assessed by measuring the specific fluorescence profile at the excitation and emission wavelengths of 485 and 530 nm respectively, in the presence of increasing concentrations of test compound. Test compounds are ranked according to their capacity to inhibit H2O2 generated by the system where lower values reflect greater ability to inhibit H2O2 production.

The test system of data set [3] is generation of hydrogen peroxide (H2O2) by iron. Briefly: H2O2 Inhibition Assay. In kind it is biochemical. On the procedure: Assay 1. H2O2 Inhibition Assay.
as §1

In data set [4] the test system is M17 human neuroblastoma cells. Briefly: Metal Uptake Assay (metal transport). The data set is classed as cell-based. The following applies: 10 μM Cu + 10 μM compound, 5 hours. On the procedure:
Assay 3. Metal Uptake Assay
M17 human neuroblastoma cells are plated out on 6 well plates and left overnight. Enough cells are added to give approximately 70% confluent the following day of the experiment. Test compounds are added to media and mixed with equi-molar amounts of CuCl2 solution. A=10 μM Cu+10 μM MPAC; B=10 μM Cu+10 μM MPAC.
Cells are incubated in 1 ml of media/MPAC/Cu mix for 5 hours at 37° C. At the end of the incubation the media is removed with a vacuum aspirator and 1 ml of PBS added to dislodge the cells. Cells are then put into Eppendorf tubes and pelleted. The PBS is removed and the remaining cell pellets are frozen at −20 C.
The cell pellets are prepared as follows:
Received cell pellets of similar levels in 1.5 ml microfuge tubes. Added 50 μl of concentrated Nitric Acid (Aristar, BDH) to each cell pellet and allowed them to digest over night. Heated the samples for 20 min at 90° C. to complete the digestion. The volume of each sample was reduced to ˜45 ul after digestion. Added 1 ml of the 1% Nitric Acid diluent to each sample. (referred to as the “preparation solution” samples).
Measurements were made using a Varian UltraMass ICPMS instrument under operating conditions suitable for routine multi-element analysis.
The instrument was calibrated using Blank, 10, 50 and 100 ppb of a certified multi-element ICPMS standard solution (ICP-MS—CAI2-1, Accustandard) for Fe, Cu and Zn in 1% nitric acid. Used an certified internal standard solution containing 100 ppb Yttrium (Y 89) as an internal control (ICP-MS—IS-MIX1-1, Accustandard).

A further data set addresses T1, CYP2C19 (Homo sapiens, UniProt P33261).
T1 construct: using a specific substrate approach in human liver microsomes; from tissue; host or cells: human liver microsomes
Briefly: CYP450 isoform inhibition, recombinant enzymes, analysis by LCMS: CYP2C19. The data set is classed as in vitro ADME. As to the method:
CYP450 Isoform Inhibition
Microsomes containing individual recombinant human CYP450 enzymes (Supersomes™) were incubated in the presence of a fixed concentration of a probe substrate that forms a fluorescent metabolite upon CYP450-mediated metabolism.
A known inhibitor of each CYP450 isoform was included in each assay as a positive control and its IC50 was compared to literature values for acceptance of the assay.
The inherent fluorescence of the test compound was examined under the specific assay conditions for each isoform before and after the fluorometric assay to identify any compound-specific interference due to the parent compound or metabolic products. If the background fluorescence in these samples increased due to compound-specific interference, then the CYP450 inhibition samples were quantified using LC/MS assay.

The next data set deals with M17. Briefly: Cytotox (% viable), cells marked M17. The data set is classed as cell-based, human. To be noted: repeat values given.

T1 sequence (P33261 whole entry): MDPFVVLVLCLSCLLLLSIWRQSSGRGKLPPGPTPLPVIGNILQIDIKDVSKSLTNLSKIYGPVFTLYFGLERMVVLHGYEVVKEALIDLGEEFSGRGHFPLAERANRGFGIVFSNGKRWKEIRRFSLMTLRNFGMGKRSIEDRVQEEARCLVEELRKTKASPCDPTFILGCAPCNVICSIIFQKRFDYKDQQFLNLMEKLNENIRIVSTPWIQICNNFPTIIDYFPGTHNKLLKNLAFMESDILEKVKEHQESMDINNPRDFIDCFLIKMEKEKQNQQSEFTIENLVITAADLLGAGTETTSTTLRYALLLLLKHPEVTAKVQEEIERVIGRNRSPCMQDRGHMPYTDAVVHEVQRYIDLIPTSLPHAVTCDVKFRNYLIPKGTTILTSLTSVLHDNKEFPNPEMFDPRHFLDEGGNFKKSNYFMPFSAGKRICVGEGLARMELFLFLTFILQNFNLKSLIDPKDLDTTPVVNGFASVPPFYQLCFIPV

Consider `CN(C)Cc1nc2c(O)c(Cl)cc(Cl)c2c(=O)n1C` [Compound F4269, 5,7-Dichloro-2-(dimethylamino)methyl-8-hydroxy-3-methylquinazolin-4(3H)-one], for which the values for the fraction unbound in data set [1] and in data set [2] were 0.582 to 0.658 and 0.074 to 0.116, respectively.

For `Br.CCn1c(CNC)nc2c(O)c(Cl)cc(Cl)c2c1=O` [Compound F4486], in the data set on Neuronal cortical cells, the “Cytotox (% viable at 1 uM)” value was 97.9% and 101.4%; the “Cytotox (% viable at 10 uM)” value was 52.2% and 43.3%. The “Fe-DA % cf. Fe 0.4 μM/DA 50 μM” value in the data set on Fe-DA was 56%. The compound further returned an IC50 in data set [3] of 1930 nM. For the same compound, the Metal transport result in data set [4] was “Metal transport 14%”.

For the compound `CNCc1nc2c(O)c(Cl)cc(Cl)c2c(=O)n1C` [Compound F4161], the IC50 at CYP2C19 was above 40000 nM.

For `CCNCc1nc2c(O)c(Cl)cc(Cl)c2c(=O)n1CC` [Compound F4495], in the data set with Neuronal cortical cells, the “Cytotox (% viable at 1 uM)” value was 89.3% and 112.8%; the “Cytotox (% viable at 10 uM)” value was 47.9% and 57.1%. The “Fe-DA % cf. Fe 0.4 μM/DA 50 μM” value with Fe-DA came out at 45%. Further, in data set [3], half-maximal inhibition (IC50) required 770 nM. Also, the Metal transport entry in data set [4] is given as “Metal transport 8%”.

In the case of `Br.CCNCc1nc2c(O)c(Cl)cc(Cl)c2c(=O)n1C` [Compound F4496], in the data set with Neuronal cortical cells, the “Cytotox (% viable at 1 uM)” value is 102.7% and 114.6%; the “Cytotox (% viable at 10 uM)” value is 59.4% and 101.2%. The “Fe-DA % cf. Fe 0.4 μM/DA 50 μM” value with Fe-DA was determined as 45%. This compound also gave a 50% inhibitory concentration (IC50) in data set [3] of 830 nM. Moreover, the Metal transport entry in data set [4] is listed as “Metal transport 7%”.

Regarding `CCn1c(CN(C)C)nc2c(O)c(Cl)cc(Cl)c2c1=O.Cl` [Compound F4268], the fraction unbound lay in the range of 0.178 to 0.203 in data set [1] and 0.052 to 0.055 in data set [2].

As to `C#CCN(C)Cc1nc2c(O)c(Cl)cc(Cl)c2c(=O)n1CC1CC1` [Compound F4387], the “Fe-DA % cf. Fe 0.4 μM/DA 50 μM” value with Fe-DA amounted to 77%. This compound also returned an IC50 in data set [3] of 460 nM. For the same compound, in data set [4], the Metal transport entry was “Metal transport 111%”. In the data set on M17, the “Cytotox (% viable at 1 uM)” value was 104.0% and 92.7% and 95.9% and 100.7%.

As to `CCN(CC)Cc1nc2c(O)c(Cl)cc(Cl)c2c(=O)n1CC1CC1` [Compound F4385], the “Fe-DA % cf. Fe 0.4 μM/DA 50 μM” value in the data set on Fe-DA was 86%. Besides, the IC50 in data set [3] is 910 nM. The Metal transport result in data set [4] is reported as “Metal transport 9%”. In addition, in the data set with M17, the “Cytotox (% viable at 1 uM)” value was 99.2% and 105.0%. Further, in the data set with M17 (10 uM), the “Cytotox (% viable at 10 uM)” value was found to be 97.7%.

In general, fraction unbound refers to free concentration divided by total concentration. A higher fraction unbound goes with much free substance. In general, IC50 refers to the concentration at which inhibition is half-maximal.
